Laboratory results reported in patent publication US20200016188A1, “MODIFICATION OF THE PH AND OTHER PHYSICAL PROPERTIES OF NICOTINAMIDE ADENINE DINUCLEOTIDE (OXIDIZED FORM) TO ALLOW FOR ENHANCED STABILITY AND MULTIPLE DELIVERY SYSTEMS” (priority 2018, published 2020).
“Also recorded” adds a separate entry of the source. Read-outs that look alike come from different tables or passages of the source. Each block holds one compound with its values, some of them ahead of it.

Assays:
[1] = pH testing of test substances (pH strips, probe and meter); format: physicochemical
Procedure: PH testing was done by using both pH testing strips and a probe and meter for each test substance to determine its pH. Each test substance was dissolved in 150 ml distilled water then tested for its pH value. Where the test substance could not be tested because it was not water soluble, an art-recognized pH was used.
PH testing was done by using both ph testing strips and a probe and meter for each test substance to determine its pH. Each test substance was dissolved in 150 ml distilled water then tested for its pH value.

[2] = not tested, cited from earlier work; for (pH): Table 6, too viscous
[3] = Two-week stability of compressed lozenge of NAD+ with a test substance, HPLC UV; conditions: for Observation when the composition was made: NAD+ with test substance, HPLC data could not be obtained
Procedure: Preparations of nicotinamide adenine dinucleotide (oxidized form) were compounded. A compressed lozenge was created including 100 mg nicotinamide adenine dinucleotide (oxidized form) and 100 mg of a test substance. The powders were compressed in a tablet mold and released. Each test tablet was then placed in a white 75cc HDPE container that was sealed and removed from UV light for two weeks at room temperature.
After a two week period, the compositions were tested by performing an HPLC UV.

[4] = cited from earlier work
[5] = Table 5, test substance dissolved in 150 ml distilled water
[6] = anhydrous NAD+ with test substance, two weeks, HPLC UV versus NAD+ control

(pH) Value ([1]; summary of Table 6): neutral
Compound: OC[C@@H](O)[C@@H](O)[C@H](O)[C@@H](O)CO [70% Sorbitol, Sorbitol]
(pH) [2]: (pH) neutral

Compound: CCCCCCCCCCCCCCCC(=O)OC[C@H](O)[C@H]1OC(=O)C(O)=C1O [Ascorbyl palmitate]
pH range ([2]; Table 5, not water soluble, art-recognized pH): (pH) range 6.8-7.2

(pH) Value ([1]; Table 6, test substance in 150 ml distilled water): 6.9
(pH) Value ([1]; summary of Table 6): neutral
Compound: OCc1ccccc1 [Benzyl alcohol]

Compound: O=P([O-])([O-])O.[Ca+2] [Calcium Phosphate Dibasic, Calcium phosphate dibasic]
(pH) Value [1, 5]: 8.5
Degradation of NAD+ when formulated with the test substance by itself (words) [3, 6]: did not degrade the NAD+; also recorded: little to no degradation; also recorded: do not degrade NAD+
Degradation of NAD+ when formulated with the test substance by itself (words) ([3]; anhydrous NAD+ with test substance, two weeks, HPLC UV versus NAD+ control, listed as CaHPO4): deemed effective

(pH) Value [1, 5]: 6.3
Compound: OC[C@@H](O)[C@@H](O)CO [Erythitol, Erythritol]

(pH) Value ([1]; summary of Table 6): neutral
Compound: OCC(O)CO [Glycerin]
(pH) [2]: (pH) neutral

Compound: [Mg+2].[OH-].[OH-] [Magnesium Hydroxide Mg(OH)2, Magnesium hydroxide]
Degradation of NAD+ when formulated with the test substance by itself (words) ([3]; anhydrous NAD+ with test substance, two weeks, HPLC UV versus NAD+ control, listed as Mg(OH)2): deemed effective
Degradation of NAD+ when formulated with the test substance by itself (words) ([3]; anhydrous NAD+ with test substance, two weeks, HPLC UV versus NAD+ control, listed as magnesium hydroxide): do not degrade NAD+; also recorded: provided for stable compositions of NAD+

Compound: [O]=[Mg] [Magnesium Oxide MgO, Magnesium oxide]
(pH) Value [1, 5]: 9.1
Degradation of NAD+ when formulated with the test substance by itself (words) [3, 6]: cause degradation of the NAD+

Compound: O=C([O-])[O-].[Mg+2] [Magnesium carbonate MgCO2, Magnesium carbonate]
Degradation of NAD+ when formulated with the test substance by itself (words) [3, 6]: did not degrade the NAD+; also recorded: little to no degradation; also recorded: do not degrade NAD+

(pH) Value [1, 5]: 6.7
Compound: OC[C@@H](O)[C@@H](O)[C@H](O)[C@H](O)CO [Mannitol]

Compound: NC(=O)c1ccc[n+]([C@@H]2O[C@H](COP(=O)([O-])OP(=O)(O)OC[C@H]3O[C@@H](n4cnc5c(N)ncnc54)[C@H](O)[C@@H]3O)[C@@H](O)[C@H]2O)c1 [NAD+, nicotinamide adenine dinucleotide (oxidized form)]
Time NAD+ can be stable ([4]; aqueous solutions between pH 2-6, stored at −70° C.): up to 6 months
Time NAD+ is stable ([4]; fairly neutral aqueous solutions at 0° C.): up to 2 weeks
Time the stability of NAD+ will last ([4]; neutral or slightly acidic solutions stored at zero degrees Fahrenheit): up to 2 weeks

Compound: O=C([O-])O.[K+] [Potassium Bicarbonate K2CO2, Potassium bicarbonate]
Degradation of NAD+ when formulated with the test substance by itself (words) [3, 6]: cause degradation of the NAD+

Compound: [K+].[OH-] [Potassium Hydroxide KOH, Potassium hydroxide]
Observation when the composition was made [3]: bubbled, liquefied, turned yellow, and created heat
Degradation of NAD+ when formulated with the test substance by itself (words) [3, 6]: cause degradation of the NAD+

Compound: O=C([O-])O.[Na+] [Sodium Bicarbonate Na2CO2, Sodium bicarbonate]
Degradation of NAD+ when formulated with the test substance by itself (words) [3, 6]: showed degradation shortly after creation of the lozenge tablet; also recorded: cause degradation of the NAD+

Compound: [Cl-].[Na+] [Sodium Chloride NaCl, Sodium chloride]
Degradation of NAD+ when formulated with the test substance by itself (words) [3, 6]: positive results; also recorded: do not degrade NAD+

Compound: O=C1O[C@H]([C@@H](O)CO)C([O-])=C1O.[Na+] [Sodium ascorbate]
Degradation of NAD+ when formulated with the test substance by itself (words) [3, 6]: positive results
Degradation of NAD+ when formulated with the test substance by itself (words) ([3]; anhydrous NAD+ with test substance, two weeks, HPLC UV versus NAD+ control, listed as sodium ascorbate): do not degrade NAD+

Degradation of NAD+ when formulated with the test substance by itself (words) [3]: cause degradation of the NAD+
Compound: CCCCCCCCCCCCCCCCCC(=O)O [Stearic acid]

(pH) Value ([1]; summary of Table 6): neutral
Compound: CC(=O)Oc1c(C)c(C)c2c(c1C)CCC(C)(CCC[C@H](C)CCC[C@H](C)CCCC(C)C)O2 (some centres unmarked) [Tocopherol acetates, Tocopherol acetate]
(pH) [2]: (pH) neutral

(pH) Value [1, 5]: 6.5
Compound: OC[C@@H](O)[C@H](O)[C@@H](O)CO [Xylitol]

Compound: Magnesium stearate
Degradation of NAD+ when formulated with the test substance by itself (words) [3, 6]: cause degradation of the NAD+

(pH) Value ([1]; summary of Table 6): neutral
Compound: Polysorbate 80
(pH) [2]: (pH) neutral

Compound: Sodium hydroxide [Sodium Hydroxide NaOH]
Observation when the composition was made [3]: bubbled, liquefied, turned yellow, and created heat
